Measurements published in US6664273B2, “Piperidine based MCH antagonists for treatment of obesity and CNS disorders” (Schering Corporation, priority 2001, dated 2003).

Biological target: T1, MCH receptor (Homo sapiens, UniProt Q99705)
T1 construct: expressed in transfected cells; host or cells: CHO cells
Test: MCH Receptor Binding Assay
Conditions: [125I]-MCH, SPA, membranes from CHO cells expressing the MCH receptor
Procedure: Membranes from CHO cells expressing the MCH receptor were prepared by lysing cells with 5 mM HEPES for 15 min at 4C. Cell lysates were centrifuged ([…], 15 min) and the pellet was re-suspended in 5 mM HEPES. For each 96-well plate (Microlite, Dynex Technologies), 1 mg of cell membranes were incubated with 10 mg of wheat germ agglutinin SPA beads (Amersham) for 5 min at 4 C in a volume of 10 ml of binding buffer (25 mM HEPES, 10 mM MGCl2, 10 mM NaCl, 5 mM MnCl2, 0.1% BSA). The membrane/bead mixture was centrifuged (1500×g, 3.5 min), the supernatant was aspirated, and the pellet was re-suspended in 10 ml binding buffer. The centrifugation, aspiration and re-suspension were then repeated. The membrane/bead mixture (100 μl) was then added to 96-well plates containing 50 μl of 500 pM [^125I]-MCH (NEN) and […] of the appropriate concentration of compound (4× the desired final concentration). Nonspecific binding was determined by including 1 μM MCH in the binding reaction. The binding reaction was incubated at room temperature for 2 h. Plates were then analyzed in a TOPCOUNT microplate scintillation counter (Packard). Data was analyzed and Ki values were determined using GraphPad Prism.

T1 sequence (Q99705 whole entry): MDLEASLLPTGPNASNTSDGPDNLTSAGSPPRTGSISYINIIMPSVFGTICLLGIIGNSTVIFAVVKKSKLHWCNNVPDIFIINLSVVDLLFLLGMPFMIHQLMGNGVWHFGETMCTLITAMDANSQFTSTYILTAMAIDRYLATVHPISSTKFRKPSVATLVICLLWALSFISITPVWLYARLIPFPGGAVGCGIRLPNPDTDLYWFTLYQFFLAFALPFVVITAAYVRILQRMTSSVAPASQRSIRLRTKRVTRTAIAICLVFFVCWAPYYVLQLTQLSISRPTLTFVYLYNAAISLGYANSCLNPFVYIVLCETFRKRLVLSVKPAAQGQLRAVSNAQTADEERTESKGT

SMILES: CN(CC(=O)Nc1cc(Cl)cc(Cl)c1)C1(c2ccc(-c3cccc(C#N)c3)cc2)CCN(C2CCCC2)CC1
- Ki: 0.0086 µM

SMILES: COc1cccc(-c2ccc(C3(NCC(=O)Nc4ccc(F)c(Cl)c4)CCN(C4CCCC4)CC3)cc2)c1
- Ki: 0.077 µM

SMILES: CS(=O)(=O)c1ccc(CN2CCC(OCC(=O)Nc3cc(Cl)cc(Cl)c3)(c3ccc(-c4cccc(C#N)c4)cc3)CC2)cc1
- Ki: 0.076 µM
